{"source": "patent US7842294B2", "about": "“Proteins belonging to the Bcl-2 family and fragments thereof, and their use in cancer patients” (Survac APS, priority 2003, dated 2010)", "key": {"[1]": {"system": "HLA-A2 positive breast cancer cell line MDA-MB-231", "assay": "51Cr-release cytotoxicity assay with bcl208-isolated T cells", "assay_type": "cell-based, human", "details": "enriched bcl208 reactive T cells, Bcl-2 expressing"}, "[2]": {"system": "peptide epitope-specific interferon-γ releasing effector cells in PBL", "assay": "IFN-γ ELISPOT on PBL stimulated once in vitro with peptide", "assay_type": "cell-based, human", "protocol": "To extend the sensitivity of the ELISPOT assay, PBL were stimulated once in vitro prior to analysis. At day 0, PBL or crushed lymph nodes were thawed and plated in 2 ml/well at a concentration of 2×10^6 cells in 24-well plates (Nunc, Denmark) in X-vivo medium (Bio Whittaker, Walkersville, Md.), 5% heat-inactivated human serum, and 2 mM of L-glutamine in the presence of 10 μM of peptide. Two days later 20 IU/ml recombinant interleukin-2 (IL-2) (Chiron, Ratingen, Germany) was added to the cultures. The cultured cells were tested for reactivity in the ELISPOT on day 12.\nThe ELISPOT assay was used to quantify peptide epitope-specific interferon-γ releasing effector cells as described previously (4). Briefly, nitrocellulose bottomed 96-well plates (MultiScreen MAIP N45, Millipore, Hedehusene, Denmark) were coated with anti-IFN-γ antibody (1-D1K, Mabtech, Nacka, Sweden). The wells were washed, blocked by X-vivo medium, and cells added in duplicates at different cell concentrations. Peptides were then added to each well and the plates were incubated overnight. The following day, media was discarded and the wells were washed prior to addition of biotinylated secondary antibody (7-B6-1-Biotin, Mabtech). The plates were incubated for 2 hours, washed and Avidin-enzyme conjugate (AP-Avidin, Calbiochem, Life Technologies) was added to each well. Plates were incubated at RT for 1 hour and the enzyme substrate NBT/BCIP (Gibco, Life Technologies) was added to each well and incubated at RT for 5-10 min. The reaction was terminated by washing with tap-water upon the emergency of dark purple spots. The spots were counted using the ImmunoSpot® Series 2.0 Analyzer (CTL Analyzers, LLC, Cleveland, US) and the peptide specific CTL frequency could be calculated from the numbers of spot-forming cells. All assays were performed in triplicates for each peptide antigen."}, "[3]": {"system": "HLA-A2 negative breast cancer cell line ZR75-1"}, "[4]": {"system": "antigen-specific CTL in PBL", "assay": "Granzyme B (GrB) ELISPOT", "assay_type": "cell-based, human", "protocol": "The Granzyme B (GrB) ELISPOT assay was used for measuring antigen-specific CTL cytotoxicity as described. Briefly, nitrocellulose bottomed 96-well plates (MultiScreen MAIP N45, Millipore) were coated with GrB Capture Antibody (BD Biosciences, Brondby, Denmark). The wells were washed and blocked by X-vivo medium with 5% human serum. The cells were added at different cell concentrations. T2 cells and peptides were then added to each well and the plates were incubated 4 hours, medium was discarded and the wells were washed prior to addition of GrB Detection Antibody (BD Biosciences). The plates were incubated for 2 hours, washed and Avidin horseradish peroxidase (BD Biosciences) was added to each well. Plates were incubated at RT for 1 hour AEC Substrate Reagent (BD Biosciences) was added to each well and incubated at RT for 5-10 min. The reaction was terminated by washing with tap-water upon the emergency of red spots. The spots were counted and the peptide specific CTL frequency was calculated like for the INF-γ ELISPOT. All assays were performed in duplicate or triplicates for each peptide antigen."}, "HLA-A2": {"target": "T1, HLA-A2 (Homo sapiens, UniProt P04439, D140Y/D185E/D98H/E176V/E277Q/G131W/G231S/I119V/I121R/I166T/I218V/L300P/L318F/N151K/N90K/P208A/P217A/Q86G/Q94H/R138H/R169H/T345S)", "T1 construct": "empty HLA molecules released upon cell lysis, from the TAP-deficient cell line T2; endogenous in cells; host or cells: T2 (TAP-deficient cell line), metabolically labelled with [35S]-methionine and lysed", "assay": "Assembly assay for peptide binding to MHC class I molecules (stabilisation of HLA from TAP-deficient T2 cells)", "details": "recovery of HLA-A2 measured at 50, 5, 0.5, 0.05 μM peptide; read-out: C50 (concentration of the peptide required for half maximal binding to HLA-A2)", "protocol": "This assembly assay is carried out as described previously (2), and it is based on stabilisation of the HLA molecule after loading of peptide to the peptide transporter deficient cell line T2. Subsequently, correctly folded stable HLA heavy chains are immunoprecipitated using conformation dependent antibodies and the peptide binding is quantitated.\nThe binding affinity of the synthetic peptides (Invitrogen, Carlsbad, Calif., USA) to HLA-A2 molecules, metabolically labelled with [^35S]-methionine, was measured in the assembly assay, as described previously. The assay is based on peptide-mediated stabilisation of empty HLA molecules released upon cell lysis, from the TAP-deficient cell line T2. Stably folded HLA-molecules were immune-precipitated using the HLA class I-specific, conformation-dependent mAb W6/32, and separated by isoelectric focusing (IEF) gel electrophoresis. MHC heavy chain bands were quantified using the ImageGauge Phosphorimager program (FUJI photo film Co., Carrollton, Tex., USA). The intensity of the band is directly related to the amount of peptide-bound class I MHC complex recovered during the assay. Subsequently, the extent of stabilisation of HLA-A2 is directly related to the binding affinity of the added peptide. The recovery of HLA-A2 was measured in the presence of 50, 5, 0.5, 0.05 μM of the relevant peptide. The C50 value was calculated for each peptide as the peptide concentration sufficient for half maximal stabilisation.\nThe amino acid sequence of the Bcl-2 protein was screened for the most probable HLA-A2 nona- and decamer peptide epitopes, using the main HLA-A2 specific anchor residues (2). […] The assembly assay is based on stabilisation of the class I molecule after loading of different concentrations of peptide to the TAP-deficient cell line T2. Subsequently correctly folded stable MHC heavy chains are immunoprecipitated using conformation-dependent antibodies."}, "T2 cells": {"system": "T2 cells", "assay": "51Cr-release cytotoxicity assay with bcl208-isolated T cells", "assay_type": "cell-based, human", "details": "bcl208 reactive T cells enriched from a breast cancer patient, day 5"}, "[5]": {"details": "PBL from 15 HLA-A2 positive breast cancer patients"}}, "note": "Ends that are not written are not given here.", "data": [{"sequence": "PLFDFSWLSL [bcl208]", "values": [{"measurement": "lysis of MDA-MB-231 cells", "setting": "[1]", "result": "efficiently lysed"}, {"measurement": "healthy individuals with CTL response", "setting": "[2]; 12 healthy HLA-A2 positive individuals", "result": "one"}, {"measurement": "patients with spontaneous CTL response", "setting": "[2]; [5]", "result": "twelve"}, {"measurement": "patients with spontaneous CTL response (%)", "setting": "[2]; [5]", "result": "≈ 80%"}, {"measurement": "CLL patients with Bcl-2 response", "setting": "[2]; ten HLA-A2 positive CLL patients, reactivity against bcl208 and bcl214, not broken down by peptide", "result": "five"}, {"measurement": "AML patients with Bcl-2 response", "setting": "[2]; three AML patients, reactivity against bcl208 and bcl214, not broken down by peptide", "result": "two"}, {"measurement": "pancreatic cancer patients with CTL response", "setting": "[2]; two HLA-A2 positive pancreatic cancer patients", "result": "both"}, {"measurement": "cytotoxicity against ZR75-1 cells", "setting": "[3]", "result": "no cytotoxicity was observed"}, {"measurement": "GrB release in controls", "setting": "[4]; breast cancer patient no. 16 and healthy control h1", "result": "no GrB release was detected"}, {"measurement": "recognition of peptide-pulsed T2 cells by CTL clones (GrB ELISPOT)", "setting": "[4]; clones from HLA-A2/bcl208 bead-isolated cells, data not shown", "result": "Several of these clones showed specific recognition"}, {"measurement": "EC50", "setting": "HLA-A2", "result": 7, "unit": "µM"}, {"measurement": "killing of T2 cells loaded with peptide versus unloaded", "setting": "T2 cells", "result": "only T2 cells pulsed with bcl208 were killed"}]}]}
